Assay results reported in US20250243174A1, “ANTITUMORAL COMPOUNDS” (PHARMA MAR, S.A., priority 2021, published 2025).

Tests used:
MDA-MB-231 = test: SRB colorimetric cytotoxicity assay, MDA-MB-231; format: cell-based; conditions: Homo sapiens, MDA-MB-231, 72 h, read-out: GI50 (M) MDA-MB-231
Source text: (§1) The aim of this assay is to evaluate the in vitro cytostatic (ability to delay or arrest tumor cell growth) or cytotoxic (ability to kill tumor cells) activity of the samples being tested.
(§2) A colorimetric assay, using sulforhodamine B (SRB) reaction has been adapted to provide a quantitative measurement of cell growth and viability (using the technique developed by Skehan et al., J. Natl. Cancer Inst. 1990 and following the protocol detailed in V. Vichai and K. Kirtikara (2006) Nature Protoc. 1, 1112-1116.)
(§3) This form of assay employs 96-well cell culture microplates. All the cell lines used in this study were obtained from the American Type Culture Collection (ATCC), unless otherwise indicated, and derive from different types of human cancer.
(§4) Cells were maintained in Dulbecco's Modified Eagle Medium (DMEM) (for A549, HT-29 and MDA-MB-231) or RPMI (for PSN-1) supplemented with 10% Fetal Bovine Serum (FBS), 2 mM L-glutamine, 100 U/mL penicillin and 100 U/mL streptomycin at 37° C., 5% CO2 and 98% humidity. For the experiments, cells were harvested from subconfluent cultures using trypsinization and resuspended in fresh medium before counting and plating.
(§5) Cells were seeded in 96 well microtiter plates, at 5×10^3 cells per well in aliquots of 150 μL, and allowed to attach to the plate surface for 18 hours (overnight) in drug free medium. After that, one control (untreated) plate of each cell line was fixed (as described below) and used for time zero reference value. Culture plates were then treated with test compounds (50 μL aliquots of 4× concentrated compound stock solutions made in complete culture medium) using ten serial dilutions (concentrations ranging from […]) and triplicate cultures (final concentration of DMSO being 1%). After 72 hours treatment, the antitumor effect was measured by using the SRB methodology: Briefly, cells were washed twice with PBS, fixed for 15 min in 1% glutaraldehyde solution at room temperature, rinsed twice in PBS, and stained in 0.4% SRB solution for 30 min at room temperature. Cells were then rinsed several times with 1% acetic acid solution and air-dried at room temperature. SRB was then extracted in 10 mM trizma base solution and the absorbance measured in an automated spectrophotometric plate reader at 490 nm. Effects on cell growth and survival were estimated by applying the NCI algorithm (Boyd M R and Paull K D. Drug Dev. Res. 1995, 34, 91-104).
(§6) Using the mean±SD of triplicates, a dose-response curve was automatically generated using nonlinear regression analysis to a 4-parameter logistic curve. Three reference parameters were calculated (NCI algorithm) by automatic interpolation: GI50=compound concentration that produces […] cell growth inhibition, as compared to control cultures.

PSN-1 = test: SRB colorimetric cytotoxicity assay, PSN-1; format: cell-based; conditions: Homo sapiens, PSN1, 72 h, read-out: GI50 (M) PSN-1
Source text: as §1, §2, §3, §4, §5, §6

A549 = test: SRB colorimetric cytotoxicity assay, A549; format: cell-based; conditions: Homo sapiens, A549, 72 h, read-out: GI50 (M) A549
Source text: as §1, §2, §3, §4, §5, §6

HT29 = test: SRB colorimetric cytotoxicity assay, HT29; format: cell-based; conditions: Homo sapiens, HT-29, 72 h, read-out: GI50 (M) HT29
Source text: as §1, §2, §3, §4, §5, §6

[1] = MTMD (Maximum Tolerated Multiple Dose) determination; format: in vivo; conditions: iv, Q7dx3; female athymic nude mice
Procedure: (§7) Female Athymic Nude-Fox1 nu/nu mice (Envigo) were utilized for all experiments. Animals (N=10/cage) were housed in individually ventilated cages (Sealsafe Plus®, Techniplast S.P.A.), on a 12-hour light-dark cycle at 21-23° C. and 40-60% humidity. Mice were allowed free access to irradiated standard rodent diet (Tecklad 2914C) and sterilized water. Animals were acclimated for five days prior to being individually tattoo-identified. Animal protocols were reviewed and approved according to the regional Institutional Animal Care and Use Committees.
(§8) Mice were randomly allocated into experimental groups and intravenously administered, once for the MTD (Maximum Tolerated Dose) determination or one administration a week during three consecutive weeks, for the MTMD (Maximum Tolerated Multiple Dose) determination study. The animals were administered with white formulation or with compound dissolved in the experimental formulation at different concentrations. The volume administered was always 10 mL/kg. Once administered, animals were monitored for clinical signs of systemic toxicity, changes in body weight and mortality up to 14 days after the administration.

H460 xenografts = test: Comparative Example, in vivo H460 xenograft (PM050489); design: species or system mice; conditions: 0.08 mg/kg iv
Procedure: H460 cells were maintained in vitro at 37° C. with 5% CO2 in Dulbecco's Modified Eagle's Medium (Sigma-Aldrich, Co). Culture cells were passaged every 3 to 5 days upon reaching confluence. Each animal was subcutaneously implanted (on the right flank using 26G needle and a 1 cc syringe) at 4-6 weeks of age with 5×10^6 H460 cells suspended in 0.05 mL of a solution consisting of 50% Matrigel (Corning Incorporated Life Sciences) and 50% medium without serum or antibiotics.
Antitumor activity of PM050489 was evaluated in one human tumor model, NSCLC (H460) xenografted in immunodepressed mice. All treatments were intravenously administered at their MTD.
When tumors reached ca. 150-200 mm^3, tumor bearing animals (N=10/group) were randomly allocated into the following treatment groups: • PM050489 (0.08 mg/kg) • Placebo
Treatments were intravenously administered once per week for 2 consecutive weeks (days 0 and 7).
Tumor dimensions and body weights were recorded 3 times per week starting from the first day of treatment (Day 0). Treatments producing >20% lethality and/or 20% net body weight loss were considered toxic. Tumor volume was calculated using the equation (a·b^2)/2, where a and b were the longest and shortest diameters, respectively. Animals were euthanized when their tumors reached ca. 2,000 mm^3 and/or severe necrosis was seen. Median, mean and SD were calculated for tumor volume on each measurement day.
Antitumor effect was calculated by using ΔT/ΔC (%) and tumor growth delay (TGD). ΔT/ΔC was defined as a percentage of the change in tumor volume for each treated (T) and placebo (C) group. ΔT/ΔC was calculated immediately before the 2nd dose and on the 4th week of the study. TGD was expressed as a percentage by which the treated group volume was delayed and calculated by applying [(Dt−Dc)/Dc]100, where […] were the median times in days for treated and control groups in attaining a specified volume, fixed as 1,000 mm^3.
Treatment tolerability was assessed by monitoring body weight evolution, clinical signs as well as evidences of local damage in the injection site.

[2] = MTD (Maximum Tolerated Dose) determination; conditions: Athymic Nude-Fox1 nu/nu, mouse, in vivo; iv, single dose; female athymic nude mice
Procedure: as §7, §8

With `COC1=CC[C@@H]([C@@H](C)/C=C(C)/C=C\C=C/C(=O)N[C@H](C(=O)N/C=C\C[C@H](C/C=C(\C)Cl)OC(N)=O)C(C)(C)C)OC1=O` [PM050489, reference compound] the GI50 (MDA-MB-231) was 1.37e-10 M, the GI50 (PSN-1) was 1.9e-10 M and the GI50 (A549) was 8.59e-11 M. The GI50 (HT29) was 3.91e-11 M, the MTMD [1] was 0.075 mg/kg and the “treatment tolerability” value (H460 xenografts) was “prematurely finished because of severe necrosis in the tumor masses and/or decreases in body weight values”. The “ΔT/ΔC (%) Day 7” value (H460 xenografts; days 0 and 7, Day 7) was 103.5%, the “TGD (%)” value (H460 xenografts; tumor growth delay, target volume 1,000 mm^3) was 40.0% and the MTD at 14 days [2] was 0.075 mg/kg.
